Results: patent publication US20140212495A1, “NANOPARTICULATE COMPOSITIONS OF TUBULIN INHIBITOR COMPOUNDS” (Ziopharm Oncology, Inc., priority 2004, published 2014)
Where two headings read alike, the source gives them in different places.

Columns and labels:
[1] = cited from earlier work
[2] = test system: a variety of malignancies (e.g., prostate, brain, breast, pancreas, and colon); conditions: cited from earlier work
[3] = test system: cell cycle progression at metaphase; conditions: cited from earlier work
tubulin = conditions: cited from earlier work
[4] = 4-week subchronic toxicity study in dogs, D-24851 plasma pharmacokinetics; type: in vivo; conditions: for AUC / Cmax / Tmax / half-life / AUC(0-t): dog, plasma, iv; for AUC(0-t): read-out: AUC0-tlast,md
Method: Blood samples from all animals were taken at the following times: 1 h, 2 h, 4 h, 8 h, 16 h, 24 h, 36 h and 48 hours after application. The concentration levels of D-24851 were measured using HPLC.

O=C(Nc1ccncc1)C(=O)c1cn(Cc2ccc(Cl)cc2)c2ccccc12 [Composition D-24851, N-(Pyridin-4-yl)-[1-(4-chlorobenzyl)-indol-3-yl]glyoxylic acid amide]
neurological symptoms ([1]; animal experiments): No neurological symptoms | in-vivo antineoplastic efficacy ([1]; animals): high in-vivo antineoplastic efficacy | tolerability ([1]; preclinical experiments in rodents): very well tolerated at highly effective doses | antitumor activity in vitro [2]: significant antitumor activity | effect on cell cycle progression [3]: selectively blocks cell cycle progression at metaphase | overlap of binding site with tubulin-binding sites of vincristine or colchicine (tubulin): does not appear to overlap | effect on microtubules (tubulin; in tumor cells, as well as in a cell-free system): destabilizes microtubules | dose dependence of plasma concentrations ([4]; Composition 4 i.v. 2.61, 5.62 and 12.1 mg/kg): depend from the dose | plasma profiles day 1 versus day 27 ([4]; Composition 4 i.v., 4 weeks): of similar magnitude at day 1 and day 27 dosings | CL/f ([4]; Day 1, Composition 4 i.v. 5.62 mg/kg, Males, Meanar n=3): 38.1 mL/min/kg | CL/f ([4]; Day 1, Composition 4 i.v. 12.1 mg/kg, Females, Meanar n=3): 31.1 mL/min/kg | CL/f ([4]; Day 1, Composition 4 i.v. 12.1 mg/kg, Males, Meanar n=3): 29.5 mL/min/kg | CL/f ([4]; Day 27, Composition 4 i.v. 5.62 mg/kg, Males, Meanar n=3): 38.1 mL/min/kg | CL/f ([4]; Day 27, Composition 4 i.v. 12.1 mg/kg, Females, Meanar n=3): 31.1 mL/min/kg | CL/f ([4]; Day 27, Composition 4 i.v. 12.1 mg/kg, Males, Meanar n=3): 29.5 mL/min/kg | AUC ([4]; female, 2.61 mg/kg, Day 1, Composition 4 i.v. 2.61 mg/kg, Females, Meanar n=3, read-out: AUCτ, sd): 3400 ng·h/mL | Cmax ([4]; female, 2.61 mg/kg, Day 1, Composition 4 i.v. 2.61 mg/kg, Females, Meanar n=3, read-out: Cmax, sd): 210 ng/mL | Tmax ([4]; female, 2.61 mg/kg, Day 1, Composition 4 i.v. 2.61 mg/kg, Females, Meanar n=3, read-out: tmax, sd): 1.67 h | half-life ([4]; female, 2.61 mg/kg, Day 1, Composition 4 i.v. 2.61 mg/kg, Females, only for orientating, unsufficient curve fitting): 41 h | AUC ([4]; female, 2.61 mg/kg, Day 27, Composition 4 i.v. 2.61 mg/kg, Females, Meanar n=3, read-out: AUCτ, md): 1410 ng·h/mL | Cmax ([4]; female, 2.61 mg/kg, Day 27, Composition 4 i.v. 2.61 mg/kg, Females, Meanar n=3, read-out: Cmax, md): 148 ng/mL | Tmax ([4]; female, 2.61 mg/kg, Day 27, Composition 4 i.v. 2.61 mg/kg, Females, Meanar n=3, read-out: tmax, md): 2.33 h | half-life ([4]; female, 2.61 mg/kg, Day 27, Composition 4 i.v. 2.61 mg/kg, Females, only for orientating, insufficient curve fitting): 28.3 h | AUC(0-t) ([4]; female, 2.61 mg/kg): 1100 ng·h/mL | AUC ([4]; female, 5.62 mg/kg, Day 1, Composition 4 i.v. 5.62 mg/kg, Females, Meanar n=3, read-out: AUCτ, sd): 3540 ng·h/mL | Cmax ([4]; female, 5.62 mg/kg, Day 1, Composition 4 i.v. 5.62 mg/kg, Females, Meanar n=3, read-out: Cmax, sd): 279 ng/mL | half-life ([4]; female, 5.62 mg/kg, Day 1, Composition 4 i.v. 5.62 mg/kg, Females, only for orientating, unsufficient curve fitting): 20 h | half-life ([4]; female, 5.62 mg/kg, Day 27, Composition 4 i.v. 5.62 mg/kg, Females, Meanar n=3): 14.8 h | AUC ([4]; female, 5.62 mg/kg, Day 27, Composition 4 i.v. 5.62 mg/kg, Females, Meanar n=3, read-out: AUCτ, md): 2960 ng·h/mL | Cmax ([4]; female, 5.62 mg/kg, Day 27, Composition 4 i.v. 5.62 mg/kg, Females, Meanar n=3, read-out: Cmax, md): 315 ng/mL | Tmax ([4]; female, 5.62 mg/kg, Day 27, Composition 4 i.v. 5.62 mg/kg, Females, Meanar n=3, read-out: tmax, md): 2.33 h | AUC(0-t) ([4]; female, 5.62 mg/kg): 2740 ng·h/mL | Tmax ([4]; female, 5.62 mg/kg, read-out: tmax, sd): 2 h | half-life ([4]; female, 12.1 mg/kg, Day 1, Composition 4 i.v. 12.1 mg/kg, Females, Meanar n=3): 11.6 h | AUC ([4]; female, 12.1 mg/kg, Day 1, Composition 4 i.v. 12.1 mg/kg, Females, Meanar n=3, read-out: AUCsd): 8250 ng·h/mL | AUC ([4]; female, 12.1 mg/kg, Day 1, Composition 4 i.v. 12.1 mg/kg, Females, Meanar n=3, read-out: AUCτ, sd): 7670 ng·h/mL | Cmax ([4]; female, 12.1 mg/kg, Day 1, Composition 4 i.v. 12.1 mg/kg, Females, Meanar n=3, read-out: Cmax, sd): 860 ng/mL | Tmax ([4]; female, 12.1 mg/kg, Day 1, Composition 4 i.v. 12.1 mg/kg, Females, Meanar n=3, read-out: tmax, sd): 2.33 h | half-life ([4]; female, 12.1 mg/kg, Day 27, Composition 4 i.v. 12.1 mg/kg, Females, Meanar n=3): 24.2 h | AUC ([4]; female, 12.1 mg/kg, Day 27, Composition 4 i.v. 12.1 mg/kg, Females, Meanar n=3, read-out: AUCτ, md): 4850 ng·h/mL | Cmax ([4]; female, 12.1 mg/kg, Day 27, Composition 4 i.v. 12.1 mg/kg, Females, Meanar n=3, read-out: Cmax, md): 329 ng/mL | Tmax ([4]; female, 12.1 mg/kg, Day 27, Composition 4 i.v. 12.1 mg/kg, Females, Meanar n=3, read-out: tmax, md): 2.67 h | AUC(0-t) ([4]; female, 12.1 mg/kg): 4850 ng·h/mL | Cmax ([4]; male, 2.61 mg/kg, Day 1, Composition 4 i.v. 2.61 mg/kg, Males, Meanar n=3, read-out: Cmax, sd): 147 ng/mL | Tmax ([4]; male, 2.61 mg/kg, Day 1, Composition 4 i.v. 2.61 mg/kg, Males, Meanar n=3, read-out: tmax, sd): 1.67 h | half-life ([4]; male, 2.61 mg/kg, Day 27, Composition 4 i.v. 2.61 mg/kg, Males, Meanar n=3): 40.7 h | AUC ([4]; male, 2.61 mg/kg, Day 27, Composition 4 i.v. 2.61 mg/kg, Males, Meanar n=3, read-out: AUCτ, md): 1740 ng·h/mL | Cmax ([4]; male, 2.61 mg/kg, Day 27, Composition 4 i.v. 2.61 mg/kg, Males, Meanar n=3, read-out: Cmax, md): 224 ng/mL | Tmax ([4]; male, 2.61 mg/kg, Day 27, Composition 4 i.v. 2.61 mg/kg, Males, Meanar n=3, read-out: tmax, md): 1.33 h | AUC(0-t) ([4]; male, 2.61 mg/kg): 1450 ng·h/mL | half-life ([4]; male, 5.62 mg/kg, Day 1, Composition 4 i.v. 5.62 mg/kg, Males, Meanar n=3): 6.63 h | AUC ([4]; male, 5.62 mg/kg, Day 1, Composition 4 i.v. 5.62 mg/kg, Males, Meanar n=3, read-out: AUCsd): 2470 ng·h/mL | AUC ([4]; male, 5.62 mg/kg, Day 1, Composition 4 i.v. 5.62 mg/kg, Males, Meanar n=3, read-out: AUCτ, sd): 2590 ng·h/mL | Cmax ([4]; male, 5.62 mg/kg, Day 1, Composition 4 i.v. 5.62 mg/kg, Males, Meanar n=3, read-out: Cmax, sd): 241 ng/mL | Cmax ([4]; male, 5.62 mg/kg, Day 27, Composition 4 i.v. 5.62 mg/kg, Males, Meanar n=3, read-out: Cmax, md): 186 ng/mL | Tmax ([4]; male, 5.62 mg/kg, Day 27, Composition 4 i.v. 5.62 mg/kg, Males, Meanar n=3, read-out: tmax, md): 2.33 h | half-life ([4]; male, 5.62 mg/kg, Day 27, Composition 4 i.v. 5.62 mg/kg, Males, marked ** (footnote not given)): 5.1 h | AUC(0-t) ([4]; male, 5.62 mg/kg): 1320 ng·h/mL | AUC ([4]; male, 5.62 mg/kg, read-out: AUCτ, md): 1850 ng·h/mL | Tmax ([4]; male, 5.62 mg/kg, read-out: tmax, sd): 2 h | half-life ([4]; male, 12.1 mg/kg, Day 1, Composition 4 i.v. 12.1 mg/kg, Males, Meanar n=3): 8.74 h | AUC ([4]; male, 12.1 mg/kg, Day 1, Composition 4 i.v. 12.1 mg/kg, Males, Meanar n=3, read-out: AUCsd): 6980 ng·h/mL | AUC ([4]; male, 12.1 mg/kg, Day 1, Composition 4 i.v. 12.1 mg/kg, Males, Meanar n=3, read-out: AUCτ, sd): 6870 ng·h/mL | Cmax ([4]; male, 12.1 mg/kg, Day 1, Composition 4 i.v. 12.1 mg/kg, Males, Meanar n=3, read-out: Cmax, sd): 592 ng/mL | Tmax ([4]; male, 12.1 mg/kg, Day 1, Composition 4 i.v. 12.1 mg/kg, Males, Meanar n=3, read-out: tmax, sd): 2.67 h | half-life ([4]; male, 12.1 mg/kg, Day 27, Composition 4 i.v. 12.1 mg/kg, Males, Meanar n=3): 11.9 h | AUC ([4]; male, 12.1 mg/kg, Day 27, Composition 4 i.v. 12.1 mg/kg, Males, Meanar n=3, read-out: AUCτ, md): 5620 ng·h/mL | Cmax ([4]; male, 12.1 mg/kg, Day 27, Composition 4 i.v. 12.1 mg/kg, Males, Meanar n=3, read-out: Cmax, md): 435 ng/mL | Tmax ([4]; male, 12.1 mg/kg, Day 27, Composition 4 i.v. 12.1 mg/kg, Males, Meanar n=3, read-out: tmax, md): 2.67 h | AUC(0-t) ([4]; male, 12.1 mg/kg): 5560 ng·h/mL
